Values belong to the compound of their own block, whether it stands above or below them.
How the values were obtained:
Assay type in all cases: biochemical
human recombinant FTase [1] = target: T1, human recombinant FTase (Homo sapiens, UniProt P49354+P49356); test: FTase inactivation, fluorescence assay of farnesylation of Ds-GCVLS after preincubation with inactivator
T1 construct: gift from Professor Patrick Casey, Duke University

human recombinant FTase [2] = target: T1, human recombinant FTase; test: as above; conditions: for inactivation of FTase (result in words): preincubation of FTase with compound, fluorescence assay
Protocol: For example, the catalytic ability of FTase was monitored by an assay procedure in which FTase transferred the farnesyl group from FPP to a peptide substitute for Ras. The peptide substitute for Ras in this assay had structural elements in common with Ras, in particular a sequence of four amino acids cysteinyl-valyl-lysyl-serine (cys-val-lys-ser).
Inactivation of the enzyme FTase occurred when the FTase was preincubated with phenylglyoxal monohydrate, as evidenced by (1) a decrease in enzyme activity with increasing time of preincubation with phenylglyoxal monohydrate; and (2) a decrease in enzyme activity with increasing concentration of phenylglyoxal monohydrate. Because of interference of phenylglyoxal monohydrate with the fluorescence assay used, phenylglyoxal monohydrate was removed from the FTase preincubation mixture by ultrafiltration prior to the assay being performed.
FTase assay The fluoresence assay conditions were adapted from a published method. The FTase assay consisted of the measurement of the rate of FTase-catalyzed farnesylation of the fluorescent pentapeptide Ds-GCVLS. Upon farnesylation of the cysteine, the fluoresence emission at =505 nm of the dansyl group is enhanced due to the proximity of the hydrophobic isoprenoid group. Enzyme activity (approximately 60 nM FTase) was monitored at saturating substrate concentrations (10 M farnesyl pyrophosphate, ammonium salt, prepared by successive dilutions of a commercial 2.3 mM solution in methanol:10 mM aqueous NH4OH (7:3) into assay buffer, and 1.0 M Ds-GCVLS) by measurement of the increase in fluorescence emission observed at =505 nm as FTase farnesylated Ds-GCVLS for a period of 10 min. The assay buffer was selected for unreactivity toward PGO: 50 mM NaHEPES, 5 mM DTT, 5 mM MgCl2, 10 μM ZnCl2, and 0.2% n-octyl-β-D-glucopyranoside, pH 7.5. Fluorescence emission was measured with a JASCO FP-77 spectrofluorimeter fitted with a temperature-controlled cuvette holder connected to a 30 C. constant temperature bath. All fluoresence assays were conducted in a 4 mm 4 mm quartz cuvette with excitation at 340 nm.
Inactivation of FTase by PGO FTase was incubated at 30 C in the presence and absence of PGO at various concentrations in 50 mM NaHEPES, 5 mM MgCl2, 10 μM ZnCl2, and 0.2% n-octyl-β-D-glucopyranoside, pH 7.5 (i.e., assay buffer without DTT). Periodically, aliquots of the FTase-PGO reaction mixture were removed and assayed for FTase activity. Because of interference of PGO with the fluorometric assay, the aliquot was first subjected to solvent exchange by size exclusion membrane concentration to remove PGO. The solvent exchange utilized Microcon (Millipore Co.) 30 kD molecular weight cutoff microconcentrators. This also served to stop further inactivation of the enzyme by PGO. A 100-L aliquot of FTase-PGO reaction mixture was pipetted into a Microcon concentrator, which was centrifuged at 12,000 RPM for 8 min at 4 C. The concentrate was resuspended in […] of assay buffer, and centrifugation was repeated. The final concentrate was resuspended in 90 L of assay buffer, and the resulting solution was recovered by inversion of the concentrator and centrifugation at 3500 RPM for 3 min at 4 C. The solution was then assayed for FTase activity as described above. A control was handled as above, except that PGO was omitted from the incubation mixture.

human recombinant FTase [3] = target: T1, human recombinant FTase; test: FPP protection of FTase against inactivation by PGO; conditions: FPP at various concentrations 2 min, then 10 mM PGO for 30 min at 30° C.; FIG. 3
Protocol: FIG. 3. Farnesyl pyrophosphate protection of FTase from inactivation by PGO. Points are determined by 100×(FTase activity after incubation with FPP and PGO)/(FTase activity after incubation with FPP without PGO). Assays were carried out after removal of FPP and PGO with a high molecular weight cutoff microconcentrator. Each point is the average of duplicate determinations.
FPP protection of FTase against inactivation by PGO FTase was treated with FPP at various concentrations in assay buffer without DTT for 2 min at 30° C. prior to incubation of the mixture with 10 mM PGO for 30 min at 30° C. The control was incubated with FPP at the corresponding concentration for the full length of time, but without PGO. The mixtures were subsequently subjected to microconcentration and assay, as described above.

time of incubation until FTase activity was lost (human recombinant FTase [2]; 35 mM 2-oxododecanal, 5% DMSO, data not shown): ≤ 2 min
inactivation of FTase (result in words) (human recombinant FTase [2]): rapidly inactivated FTase
SMILES: CCCCCCCCCCC(=O)C=O [2-oxododecanal]

FTase activity, % of the initial control value (human recombinant FTase [1]; 17 μM, 30 minutes of incubation, FTase 15 nM, 4.6% DMSO, Microcon step omitted): 38%
FTase activity, % of the initial control value (human recombinant FTase [1]; 68 μM, 30 minutes of incubation, FTase 15 nM, 4.6% DMSO, Microcon step omitted): 18%
FTase activity, % of the initial control value (human recombinant FTase [1]; 171 μM, 30 minutes of incubation, FTase 15 nM, 4.6% DMSO, Microcon step omitted): 16%
inactivation of FTase (result in words) (human recombinant FTase [2]): rapidly inactivated FTase
SMILES: CC(=O)C(=O)CC(C)CCC=C(C)C (stereo not shown) [5,9-dimethyl-8-decene-2,3-dione]

More lines, now with the values behind:

SMILES: CCC(=O)C(C)=O [2,3-pentanedione]
FTase activity, % of the initial control value (human recombinant FTase [1]; 17 mM, approximately 30 minutes of incubation, 50 mM sodium borate, pH 7.5, FTase 15 nM, Microcon step omitted): 69%
FTase activity, % of the initial control value (human recombinant FTase [1]; 33 mM, approximately 30 minutes of incubation, 50 mM sodium borate, pH 7.5, FTase 15 nM, Microcon step omitted): 55%
FTase activity, % of the initial control value (human recombinant FTase [1]; 66 mM, approximately 30 minutes of incubation, 50 mM sodium borate, pH 7.5, FTase 15 nM, Microcon step omitted): 37%
inactivation of FTase (result in words) (human recombinant FTase [2]): rapidly inactivated FTase

SMILES: O=CC(=O)c1ccc(-c2ccc(C(=O)C=O)cc2)cc1 [4,4′-biphenyldiglyoxaldehyde]
FTase activity, % of the initial control value (human recombinant FTase [1]; 23 μM, 30 minutes of incubation, FTase 15 nM, 4.6% DMSO): 68%
FTase activity, % of the initial control value (human recombinant FTase [1]; 93 μM, 30 minutes of incubation, FTase 15 nM, 4.6% DMSO): 11%
inactivation of FTase (result in words) (human recombinant FTase [2]): rapidly inactivated FTase

SMILES: CC(=O)c1ccc(-c2ccc(C(C)=O)cc2)cc1 [4,4′-diacetylbiphenyl, reference compound]
FTase activity compared with the control (human recombinant FTase [1]; 23 μM, 120 minutes of incubation, FTase 15 nM, 4.6% DMSO): the same as the control
inactivation of FTase (result in words) (human recombinant FTase [2]): did not inactivated FTase

SMILES: O=CC(=O)c1ccccc1 [PGO, phenylglyoxal monohydrate]
rate of inactivation of FTase (human recombinant FTase [1]; 5 mM PGO, FIG. 2): the rate of inactivation was reduced
FTase activity following preincubation with inactivator (human recombinant FTase [2]; 10 mM PGO for 10 min, PGO removed by microconcentrator, FIG. 1): virtual absence of enzyme activity
rate of inactivation of FTase (human recombinant FTase [2]; 10 mM PGO, compared with 20 mM, FIG. 2): slower but still quite rapid
inactivation of FTase (result in words) (human recombinant FTase [2]; listed as phenylglyoxal monohydrate, monohydrate): rapid and virtually complete inactivation
inactivation of FTase (result in words) (human recombinant FTase [2]; monohydrate): rapidly inactivated
effect of preincubation of FTase with FPP on inactivation by PGO (human recombinant FTase [3]): decreased the ability of PGO to inactivate FTase

SMILES: CCCCCCCCCCCCCCCC(=O)OC[C@H](O)[C@H]1OC(=O)C(=O)C1=O [dehydroascorbic acid 6-palmitate]
FTase activity, % of the initial control value (human recombinant FTase [1]; 7 μM, 30 minutes of incubation, FTase 15 nM, 0.46% DMSO, Microcon step omitted): 75%
FTase activity, % of the initial control value (human recombinant FTase [1]; 28 μM, 30 minutes of incubation, FTase 15 nM, 0.46% DMSO, Microcon step omitted): 34%
FTase activity, % of the initial control value (human recombinant FTase [1]; 141 μM, 30 minutes of incubation, FTase 15 nM, 0.46% DMSO, Microcon step omitted): 22%
inactivation of FTase (result in words) (human recombinant FTase [2]): rapidly inactivated FTase
